In patent US20220289688A1, “RNA-TARGETING LIGANDS, COMPOSITIONS THEREOF, AND METHODS OF MAKING AND USING THE SAME” (THE UNIVERSITY OF NORTH CAROLINA AT CHAPEL HILL, priority 2019, published 2022):
Values joined by “and” are separate entries in the source; they are usually repeats but may differ in a detail not shown here. Identical values can stand only once. “Also recorded” adds a separate entry of the source. Like-named read-outs stand apart in the source and are kept apart here. Each block holds one compound with its values, some of them ahead of it.

Legend:
[1] = target: TPP riboswitch RNA; experiment: Isothermal titration calorimetry (ITC), ligand titrated into RNA; type: binding; details: for Kd / Binding affinity relative to a named comparator compound / Kd (μM): ITC; for Effect of modification on RNA binding affinity (FIG. 5): linked fragments 17 and 31, dissociation constants by ITC; for Binding affinity relative to a named comparator compound: comparator named in value
[2] = Solubility at concentrations required for ITC; type: physicochemical; details: ITC buffer
Description: (§1) ITC experiments were performed using a Microcal PEAQ-ITC automated instrument (Malvern Analytical) under RNase-free conditions^41. In vitro transcribed RNA was exchanged into folding buffer containing 100 mM CHES, pH 8.0, 200 mM potassium acetate, and 3 mM MgCl2 using centrifugal concentration (Amicon Ultra centrifugal filters, 10K MWCO, Millipore-Sigma). Ligands were dissolved into the same buffer (to minimize heat of mixing upon addition of ligand to RNA) at a concentration 10-20 times the desired experimental concentration of RNA. RNA concentration was quantified (Nanodrop UV-VIS spectrometer; ThermoFisher Scientific), diluted to 1-10 times the expected […] in buffer, and the diluted RNA was re-quantified to confirm the final experimental RNA concentration. The RNA, diluted in folding buffer, was heated at 65° C. for 5 minutes, placed on ice for 5 minutes, and allowed to fold at 37° C. for 15 minutes. if needed, the primary binding ligand (for example, 2) was pre-bound to the RNA by adding 0.1 volume at 10 times the desired final concentration of the bound ligand, followed by incubation at room temperature for 10 minutes.

[3] = tested on: TPP riboswitch region of the screening construct; experiment: SHAPE second-fragment screen of RNA construct pre-bound to primary fragment; type: binding; details: RNA pre-bound to 2 or S12; fragment 1 mM
Description: For the first-fragment-ligand screen, 5 pmol of RNA per well were diluted to […] in RNase-free water on a 4° C. cooling block. The plate was heated at 95° C. for 2 minutes, immediately followed by snap cooling at 4° C. for 5 minutes. To each well was added 19.6 μL of 2× folding buffer (final concentrations 50 mM HEPES pH 8.0, 200 mM potassium acetate, and 10 mM MgCl2), and plates were incubated at 37° C. for 30 minutes. […] To combine the target RNA with fragment, 24.3 μL of RNA solution or RNA plus primary binding fragment were added to wells containing 2.7 μL of 10× screening fragments (in DMSO to yield a final fragment concentration of 1 mM). Solutions were mixed thoroughly by pipetting and incubated for 10 minutes at 37° C. […]
Once screening of test fragments is complete, statistical tests are carried out to identify differences in modification rates of a given nucleotide. […] That is, if m1 modifications of a tested nucleotide were counted among n1 reads in sample 1 and m2 modifications were counted among n2 reads in sample 2, the tested null hypothesis predicts that among all the counted modifications (m1+m2), the proportion of modifications in sample 1 will be p1=n1/(n1+n2). […]

[4] = tested on: 2-TPP RNA complex; experiment: ITC with primary binding fragment pre-bound to the RNA; details: for Binding cooperativity with 2: ITC in presence and absence of pre-bound 2; for Kd: ITC
Description: as §1
Each ITC experiment involved two runs: one in which the ligand was titrated into RNA (the experimental trace) and one in which the same ligand was titrated into buffer (the control trace). ITC experiments were performed using the following parameters: 25° C. cell temperature, 8 μCal/sec reference power, 750 RPM stirring speed, high feedback mode, 0.2 μL initial injection, followed by 19 injections of 2 μL. Each injection required 4 seconds to complete, and there was a 180-second spacing between injections.
ITC data was analyzed using MicroCal PEAQ-ITC Analysis Software (Malvern Analytical). First, the baseline for each injection peak was manually adjusted to resolve any incorrectly selected injection endpoints. Second, the control trace was subtracted from the experimental trace by point-to-point subtraction. Third, a least-squares regression line was fit to the data using the Levenberg-Marquardt algorithm. In the case of weakly binding ligands (>500 μM), N was manually set to 1.0 to enable fitting of low c-value curves.

[5] = primary-screen hits, Table 1, value ± error, read-out: Kd
[6] = fragment 2 analogs, pendant groups, Table 2B, read-out: Kd
[7] = no ligand pre-bound, Table 6, read-out: Kd (mM) No ligand bound
[8] = primary fragment pre-bound to TPP riboswitch RNA, Table 6, read-out: Kd (mM) 5 pre-bound
[9] = fragment 5 analogs, pendant groups, Table 4, read-out: Kd
[10] = fragment 5 analogs, pendant groups, Table 4

Kd [1, 5]: 11 ± 0.2 µM
Structure (SMILES): C#Cc1ccc2nccnc2c1 [Compound 1]

Structure (SMILES): Nc1ccc2nccnc2c1 [Compound 2]
Kd ([1]; fragment 2 analogs, quinoxaline core modifications, Table 2A, read-out: Kd): 25 µM | Kd [1, 5]: 25 ± 6 µM | Kd ([1]; read-out: Kd): 25 µM

Kd [1, 5]: 95 ± 3 µM
Structure (SMILES): COc1ccc2nsnc2c1 [Compound 3]

Kd [1, 5]: 220 ± 10 µM
Structure (SMILES): NCc1ccc(-c2csnn2)cc1 [Compound 4]

Kd [1, 5]: 265 ± 80 µM
Structure (SMILES): COC(=O)c1ccc(Cl)nc1 [Compound 5]

Kd ([1]; fragment 5 analogs, pyridine core modifications, Table 3, read-out: Kd): 266 µM | Kd [1, 5]: 650 ± 100 µM
Structure (SMILES): c1cc2[nH]cnc2cn1 [Compound 6]

Solubility at concentrations required for ITC [2]: insoluble
Structure (SMILES): O=C1CC(C(F)(F)F)=NN1 [Compound 7]

Solubility at concentrations required for ITC [2]: insoluble
Structure (SMILES): O=C(O)c1cncc(-c2cccs2)c1 [Compound 8]

Kd [1, 5]: 0.029 ± 0.002 µM
Structure (SMILES): Cc1ncc(C[n+]2csc(CCOP(=O)([O-])OP(=O)(O)O)c2C)c(N)n1 [Compound 9, thiamine pyrophosphate, reference compound]

Kd [1, 6]: 18 µM
Structure (SMILES): OCc1ccc2nccnc2c1 [Compound 15]

Kd [1, 6]: 35 µM
Structure (SMILES): O=Cc1ccc2nccnc2c1 [Compound 18]

Kd [1, 6]: 58 µM | Kd ([1]; read-out: Kd): 5 µM
Structure (SMILES): COC(=O)c1ccc2nccnc2c1 [Compound 19]

Kd [1, 6]: 33 µM
Structure (SMILES): Cc1ccc2nccnc2c1 [Compound 20]

Kd [1, 6]: 75 µM
Structure (SMILES): Nc1cccc2nccnc12 [Compound 21]

Kd [1, 6]: 220 µM
Structure (SMILES): Fc1cccc2nccnc12 [Compound 23]

Kd [1, 6]: 379 µM
Structure (SMILES): Nc1cnc2ccccc2n1 [Compound 24]

Kd [1, 6]: 600 µM
Structure (SMILES): NC(=O)c1cnc2ccccc2n1 [Compound 25]

Structure (SMILES): Cc1cc(N2CCNCC2)c2ccccc2n1 [Compound 28]
Solubility at concentrations required for ITC [2]: insoluble

Structure (SMILES): O=C(O)c1csc2ccc(Cl)cc12 [Compound 29]
SHAPE result of second-round screen [3]: caused changes in other areas of the RNA consistent with nonspecific interactions

Structure (SMILES): c1cc(N2CCNCC2)ccn1 [Compound 31]
Kd ([1]; fragment alone, read-out: Kd): 10000 µM and ≥ 10000 µM | Kd [1, 7]: > 10000 µM | Binding cooperativity with 2 [4]: clear, but modest, binding cooperativity with 2 | Kd ([4]; 2 pre-bound to the TPP riboswitch RNA, read-out: Kd): ~3 mM | Kd [4, 8]: 3 mM

Structure (SMILES): Cc1cnccc1N1CCNCC1 [Compound 32]
Kd [1, 7]: > 10000 µM | Binding cooperativity with 2 [4]: clear, but modest, binding cooperativity with 2 | Kd [4, 8]: 4 mM

Kd [1, 7]: > 10000 µM
Structure (SMILES): NCCCN1CCN(c2ccncc2)CC1 [Compound 33]

Structure (SMILES): Nc1cnccc1N1CCNCC1 [Compound 34]
Kd [1, 7]: > 10000 µM

Effect of modification on RNA binding affinity (FIG. 5) [1]: negative modification
Structure (SMILES): O=C(CCC(=O)Nc1ccc2nccnc2c1)NO [Compound 35]

Effect of modification on RNA binding affinity (FIG. 5) [1]: increase RNA binding affinity
Structure (SMILES): O=C(CCNc1ccc2nccnc2c1)NO [Compound 36]
Binding affinity relative to a named comparator compound [1]: fivefold higher binding affinity than the amide-linked version; also recorded: affinity similar to that of the parent fragment 17

Kd ([1]; read-out: Kd (affinity)): 0.625 µM | Effect of modification on RNA binding affinity (FIG. 5) [1]: increase RNA binding affinity
Structure (SMILES): c1cc(N2CCCCC2)c(NCc2ccc3nccnc3c2)cn1 [Compound 37]

Binding affinity relative to a named comparator compound [1]: reduced affinity relative to compound 37 | Effect of modification on RNA binding affinity (FIG. 5) [1]: neutral modifications
Structure (SMILES): CN(C)CCNCc1ccc2nccnc2c1 [Compound 38]

Binding affinity relative to a named comparator compound [1]: reduces affinity relative to compound 37 | Effect of modification on RNA binding affinity (FIG. 5) [1]: negative modification
Structure (SMILES): c1cc(N2CCNCC2)c(CNCc2ccc3nccnc3c2)cn1 [Compound 39]

Binding affinity relative to a named comparator compound [1]: reduces affinity relative to compound 37 | Effect of modification on RNA binding affinity (FIG. 5) [1]: negative modification
Structure (SMILES): c1cnc2cc(CNc3cncc(N4CCNCC4)c3)ccc2n1 [Compound 40]

Kd [1, 9]: 440 µM
Structure (SMILES): COC(=O)c1ccc(Br)cc1 [compound 85]

Structure (SMILES): COC(=O)c1ccc([N+](=O)[O-])cc1 [compound 86]
Kd [1, 9]: 390 µM

Kd [1, 9]: 1800 µM
Structure (SMILES): CCOc1ccc(C(=O)OC)cc1 [compound 87]

Structure (SMILES): COC(=O)c1ccc(N)cc1 [compound 88]
Kd [1, 9]: 1100 µM

Kd (μM) [1, 10]: no binding
Structure (SMILES): COC(=O)c1ccc(C(F)(F)F)cc1 [compound 89]

Kd (μM) [1, 10]: no binding
Structure (SMILES): COC(=O)c1ccc(Oc2ccccc2)cc1 [compound 810]

Kd [1, 9]: 820 µM
Structure (SMILES): COC(=O)c1ccc(Cl)c(Cl)c1 [compound 811]

Kd [1, 9]: 93 µM
Structure (SMILES): COC(=O)c1ccc(Cl)cc1Cl [compound 812]
Binding affinity relative to a named comparator compound [1]: approximately threefold higher affinity for the TPP riboswitch than did fragment 5

Kd [1, 9]: 600 µM
Structure (SMILES): CCOC(=O)c1ccc(Cl)cc1 [compound 813]

Kd [1, 9]: 1300 µM
Structure (SMILES): OCc1ccc(Cl)cc1 [compound 814]

Kd [1, 9]: 1800 µM
Structure (SMILES): NC(=O)c1ccc(Cl)cc1 [compound 815]

Kd [1, 9]: 1300 µM
Structure (SMILES): NS(=O)(=O)c1ccc(Cl)cc1 [compound 816]

Kd (μM) [1, 10]: no binding
Structure (SMILES): CCS(=O)(=O)c1ccc(Cl)cc1 [compound 817]

Structure (SMILES): CN(C)C(=O)c1ccc(Cl)cc1 [compound 818]
Kd (μM) [1, 10]: no binding
